Results from publication PMC4511751, “Rapid Expansion of Phenylthiocarbamide Non-Tasters among Japanese Macaques” (PLoS ONE, 2015).
pEC50: −log10 of the molar value.

Legend:
MmTAS2R38WT-a = target: T1, MmTAS2R38WT-a (Macaca mulatta, UniProt F1T2U6); assay: calcium imaging, fluo-4, FlexStation, HEK293T with G-alpha16gust44; format: cell-based
T1 construct: gene tas2r38; full-length TAS2R38, N-terminal first 45 residues of rat ssr3 and C-terminal last 8 residues of bovine rhodopsin as tags, pEAK10, HEK293T, co-expressed with chimeric G-alpha16gust44
T1 sequence (F1T2U6 1-333): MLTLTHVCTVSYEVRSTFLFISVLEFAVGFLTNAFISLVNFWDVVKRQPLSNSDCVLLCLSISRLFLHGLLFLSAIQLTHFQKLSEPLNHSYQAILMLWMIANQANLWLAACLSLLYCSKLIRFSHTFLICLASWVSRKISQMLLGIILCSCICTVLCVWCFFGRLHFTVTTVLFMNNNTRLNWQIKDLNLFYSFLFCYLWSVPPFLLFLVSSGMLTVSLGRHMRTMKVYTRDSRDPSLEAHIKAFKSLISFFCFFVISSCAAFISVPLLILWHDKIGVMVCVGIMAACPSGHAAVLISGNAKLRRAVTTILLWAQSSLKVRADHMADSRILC

MfTAS2R38TR-K = target: T2, MfTAS2R38TR-K (Macaca fuscata, UniProt F1T2T8); conditions: truncated allele Mf-K; pH 7.4
T2 construct: gene tas2r38
T2 sequence (F1T2T8 1-237): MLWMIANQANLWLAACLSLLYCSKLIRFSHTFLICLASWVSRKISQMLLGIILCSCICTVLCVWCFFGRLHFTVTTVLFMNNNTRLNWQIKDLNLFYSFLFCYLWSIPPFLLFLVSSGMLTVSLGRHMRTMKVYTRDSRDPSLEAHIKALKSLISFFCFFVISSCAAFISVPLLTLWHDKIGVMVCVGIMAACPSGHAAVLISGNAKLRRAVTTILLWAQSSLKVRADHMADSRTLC

NC(=S)Nc1ccccc1 [phenylthiocarbamide]
pEC50 (MmTAS2R38WT-a): 6.25
calcium imaging, fluo-4, FlexStation, HEK293T with G-alpha16gust44 (MfTAS2R38TR-K): failed to respond to PTC
